{"source": "patent US20220062240A1", "about": "“METHODS OF TREATING CANCER USING A CLK INHIBITOR” (BioSplice Therapeutics, Inc., priority 2018, published 2022)", "key": {"[1]": {"test_system": "colorectal cancer (6 cell lines)", "assay": "CellTiter-Glo Viability Assay, colorectal cancer", "type": "cell-based", "conditions": "Homo sapiens, inhibition of cancer cell proliferation"}, "[2]": {"test_system": "ovarian cancer (4 cell lines)", "assay": "CellTiter-Glo Viability Assay, ovarian cancer", "type": "cell-based", "conditions": "Homo sapiens, inhibition of cancer cell proliferation"}, "[3]": {"test_system": "prostate cancer (5 cell lines)", "assay": "CellTiter-Glo Viability Assay, prostate cancer", "type": "cell-based", "conditions": "Homo sapiens"}, "[4]": {"test_system": "DU4475", "assay": "CellTiter-Glo Viability Assay, breast cancer", "type": "cell-based", "conditions": "Homo sapiens, DU-4475, 96 h; DU4475, breast cancer, four days; read-out: EC50"}, "[5]": {"test_system": "ZR-75-1", "assay": "CellTiter-Glo Viability Assay, breast cancer", "type": "cell-based", "conditions": "Homo sapiens, 96 h; ZR-75-1, breast cancer, four days; read-out: EC50"}, "[6]": {"test_system": "BT-549", "assay": "CellTiter-Glo Viability Assay, breast cancer", "type": "cell-based", "conditions": "Homo sapiens, 96 h; BT-549, breast cancer, four days; read-out: EC50"}, "[7]": {"test_system": "HCC1599", "assay": "CellTiter-Glo Viability Assay, breast cancer", "type": "cell-based", "conditions": "Homo sapiens, 96 h; HCC1599, breast cancer, four days; read-out: EC50"}, "[8]": {"test_system": "T47D", "assay": "CellTiter-Glo Viability Assay, breast cancer", "type": "cell-based", "conditions": "Homo sapiens, 96 h, breast cancer, four days, read-out: EC50"}, "[9]": {"test_system": "MCF7", "assay": "CellTiter-Glo Viability Assay, breast cancer", "type": "cell-based", "conditions": "Homo sapiens, 96 h; MCF7, breast cancer, four days; read-out: EC50"}, "[10]": {"test_system": "CAMA1", "assay": "CellTiter-Glo Viability Assay, breast cancer", "type": "cell-based", "conditions": "Homo sapiens, CAMA-1, 96 h; CAMA1, breast cancer, four days; read-out: EC50"}, "[11]": {"test_system": "MDA-MB-231-Luc", "assay": "CellTiter-Glo Viability Assay, breast cancer", "type": "cell-based", "conditions": "Homo sapiens, 96 h; MDA-MB-231-Luc, breast cancer, four days; read-out: EC50"}, "[12]": {"test_system": "all 50 cell lines", "assay": "CellTiter-Glo Viability Assay, average across all cell lines", "type": "cell-based", "conditions": "Homo sapiens; across all 50 cell lines; read-out: average EC50 for inhibition of cancer cell proliferation", "outline": "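Proliferation of a multi-tissue human cancer line panel is assessed over four days at 37° C and 5% CO2, seeding 300-3,000 cells/well. Viability is quantified by CellTiter-Glo luminescence, and EC50 values are calculated.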"}, "[13]": {"test_system": "pancreatic cancer (8 cell lines)", "assay": "CellTiter-Glo Viability Assay, pancreatic cancer", "type": "cell-based", "conditions": "Homo sapiens, inhibition of cancer cell proliferation"}, "[14]": {"target": "T1, CLK2 (Homo sapiens, UniProt P49760)", "T1 construct": "purchased Thermo Fisher (Life Technologies), Z'-LYTE Kinase Assay Kits", "T1 sequence (P49760 whole entry)": "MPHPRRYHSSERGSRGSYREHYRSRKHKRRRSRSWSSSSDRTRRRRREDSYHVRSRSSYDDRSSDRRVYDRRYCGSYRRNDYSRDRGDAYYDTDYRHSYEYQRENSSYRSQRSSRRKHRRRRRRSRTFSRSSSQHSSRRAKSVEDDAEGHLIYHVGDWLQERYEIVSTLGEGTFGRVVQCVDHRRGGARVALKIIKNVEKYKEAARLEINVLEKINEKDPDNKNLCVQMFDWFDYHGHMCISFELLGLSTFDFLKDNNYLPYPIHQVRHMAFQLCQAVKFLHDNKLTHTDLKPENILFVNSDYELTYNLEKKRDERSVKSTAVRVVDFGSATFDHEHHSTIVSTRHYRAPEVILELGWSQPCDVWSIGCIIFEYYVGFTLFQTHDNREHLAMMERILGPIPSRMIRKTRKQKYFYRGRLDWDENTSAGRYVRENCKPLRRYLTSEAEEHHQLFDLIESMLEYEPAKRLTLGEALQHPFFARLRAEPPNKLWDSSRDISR", "assay": "CLK2 kinase activity assay (Z-lyte, Ser/Thr 6 peptide)", "type": "biochemical", "conditions": "recombinant CLK2 kinase, ATP 60 μM; read-out: EC50", "experimental": "All reactions were performed in duplicate."}, "[15]": {"target": "CLK3 (Homo sapiens, UniProt P49761)", "sequence (P49761 whole entry)": "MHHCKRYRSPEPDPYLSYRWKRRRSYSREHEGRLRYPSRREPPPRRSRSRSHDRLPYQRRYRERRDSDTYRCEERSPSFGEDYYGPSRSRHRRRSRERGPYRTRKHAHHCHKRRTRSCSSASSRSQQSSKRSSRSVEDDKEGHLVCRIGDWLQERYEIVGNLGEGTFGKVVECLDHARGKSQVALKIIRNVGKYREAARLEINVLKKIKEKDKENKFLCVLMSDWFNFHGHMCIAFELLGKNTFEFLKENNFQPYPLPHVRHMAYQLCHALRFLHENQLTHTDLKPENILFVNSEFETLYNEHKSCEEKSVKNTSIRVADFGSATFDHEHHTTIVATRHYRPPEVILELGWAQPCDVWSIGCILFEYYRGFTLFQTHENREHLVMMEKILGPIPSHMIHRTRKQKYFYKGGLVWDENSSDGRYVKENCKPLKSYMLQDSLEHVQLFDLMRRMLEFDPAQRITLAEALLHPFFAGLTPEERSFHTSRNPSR", "assay": "CLK3 kinase activity assay (Z-lyte, Ser/Thr 18 peptide)"}, "[16]": {"test_system": "haematopoietic & lymphoid tumors (13 cell lines)", "assay": "CellTiter-Glo Viability Assay, haematopoietic & lymphoid tumors", "type": "cell-based", "conditions": "Homo sapiens, inhibition of cancer cell proliferation"}, "[17]": {"test_system": "lung cancer (4 cell lines)", "assay": "CellTiter-Glo Viability Assay, lung cancer", "type": "cell-based", "conditions": "Homo sapiens, inhibition of cancer cell proliferation"}, "[18]": {"test_system": "liver cancer (3 cell lines)", "assay": "CellTiter-Glo Viability Assay, liver cancer", "type": "cell-based", "conditions": "Homo sapiens, inhibition of cancer cell proliferation"}}, "note": "Like-named read-outs stand apart in the source and are kept apart here."}
{"compound": "O=C(Nc1cncc(-c2ccc3[nH]nc(-c4cc5cnccc5[nH]4)c3c2)c1)C1CCCCC1", "note": "[Compound 47]", "values": [{"measurement": "EC50", "setting": "[1]; HCT-116, HCT116 cell line, read-out: Colorectal cancer, EC50 (μM) HCT116", "value": 0.402, "unit": "µM"}, {"measurement": "EC50", "setting": "[1]; HT-29, HT29 cell line, read-out: Colorectal cancer, EC50 (μM) HT29", "value": 1.43, "unit": "µM"}, {"measurement": "EC50", "setting": "[1]; SW-620, SW620 cell line, read-out: Colorectal cancer, EC50 (μM) SW620", "value": 0.164, "unit": "µM"}, {"measurement": "EC50", "setting": "[1]; DLD-1 cell line, read-out: Colorectal cancer, EC50 (μM) DLD-1", "value": 0.658, "unit": "µM"}, {"measurement": "EC50", "setting": "[1]; SW48 cell line, read-out: Colorectal cancer, EC50 (μM) SW48", "value": 0.164, "unit": "µM"}, {"measurement": "EC50", "setting": "[1]; SW480 cell line, read-out: Colorectal cancer, EC50 (μM) SW480", "value": 0.22, "unit": "µM"}, {"measurement": "EC50", "setting": "[2]; PA-1, PA1 cell line, read-out: Ovarian cancer, EC50 (μM) PA1", "value": 0.403, "unit": "µM"}, {"measurement": "EC50", "setting": "[2]; TOV112D, TOV-112D cell line, read-out: Ovarian cancer, EC50 (μM) TOV-112D", "value": 0.192, "unit": "µM"}, {"measurement": "EC50", "setting": "[2]; OV-90 cell line, read-out: Ovarian cancer, EC50 (μM) OV-90", "value": 0.567, "unit": "µM"}, {"measurement": "EC50", "setting": "[2]; OVCAR-3 cell line, read-out: Ovarian cancer, EC50 (μM) OVCAR-3", "value": 0.179, "unit": "µM"}, {"measurement": "EC50", "setting": "[3]; DU-145, read-out: Prostate cancer EC50 Du-145", "value": 459, "unit": "nM"}, {"measurement": "EC50", "setting": "[3]; PC-3, PC3 cell line, inhibition of cancer cell proliferation, read-out: Prostate cancer EC50 PC3", "value": 322, "unit": "nM"}, {"measurement": "EC50", "setting": "[3]; 22Rv1 cell line, inhibition of cancer cell proliferation, read-out: Prostate cancer EC50 22Rv1", "value": 283, "unit": "nM"}, {"measurement": "EC50", "setting": "[3]; LNCap clone FGC cell line, inhibition of cancer cell proliferation, read-out: Prostate cancer EC50 LNCap clone FGC", "value": 965, "unit": "nM"}, {"measurement": "EC50", "setting": "[3]; VCaP (Sigma) cell line, inhibition of cancer cell proliferation, read-out: Prostate cancer EC50 VCaP (Sigma)", "value": 574, "unit": "nM"}, {"measurement": "EC50", "setting": "[4]", "value": 77, "unit": "nM"}, {"measurement": "EC50", "setting": "[5]", "value": 358, "unit": "nM"}, {"measurement": "EC50", "setting": "[6]", "value": 409, "unit": "nM"}, {"measurement": "EC50", "setting": "[7]", "value": 75, "unit": "nM"}, {"measurement": "EC50", "setting": "[8]", "value": 468, "unit": "nM"}, {"measurement": "EC50", "setting": "[9]", "value": 1960, "unit": "nM"}, {"measurement": "EC50", "setting": "[10]", "value": 210, "unit": "nM"}, {"measurement": "EC50", "setting": "[11]", "value": 407, "unit": "nM"}, {"measurement": "EC50", "setting": "[12]", "value": 516, "unit": "nM"}, {"measurement": "EC50", "setting": "[13]; BXPC-3, BxPC3 cell line, read-out: Pancreatic cancer, EC50 BxPC3", "value": 770, "unit": "nM"}, {"measurement": "EC50", "setting": "[13]; CAPAN-1, Capan1 cell line, read-out: Pancreatic cancer, EC50 Capan1", "value": 761, "unit": "nM"}, {"measurement": "EC50", "setting": "[13]; Capan-2, Capan2 cell line, read-out: Pancreatic cancer, EC50 Capan2", "value": 540, "unit": "nM"}, {"measurement": "EC50", "setting": "[13]; MIA PaCa-2 cell line, read-out: Pancreatic cancer, EC50 MIA PaCa-2", "value": 112, "unit": "nM"}, {"measurement": "EC50", "setting": "[13]; PANC 05.04 cell line, read-out: Pancreatic cancer, EC50 PANC 05.04", "value": 791, "unit": "nM"}, {"measurement": "EC50", "setting": "[13]; PANC-1 cell line, read-out: Pancreatic cancer, EC50 PANC-1", "value": 1780, "unit": "nM"}, {"measurement": "EC50", "setting": "[13]; UPAFII cell line, read-out: Pancreatic cancer, EC50 UPAFII", "value": 357, "unit": "nM"}, {"measurement": "EC50", "setting": "[14]", "value": 1.3, "unit": "nM"}, {"measurement": "EC50", "setting": "[15]", "value": 17.6, "unit": "nM"}, {"measurement": "EC50", "setting": "[16]; DND41, DND-41 cell line, read-out: Haematopoietic & Lymphoid tumors, EC50 (μM) DND-41", "value": 0.129, "unit": "µM"}, {"measurement": "EC50", "setting": "[16]; MV4-11, MV-4-11 cell line, read-out: Haematopoietic & Lymphoid tumors, EC50 (μM) MV-4-11", "value": 0.07, "unit": "µM"}, {"measurement": "EC50", "setting": "[16]; Rec1, REC-1 cell line, read-out: Haematopoietic & Lymphoid tumors, EC50 (μM) REC-1", "value": 0.453, "unit": "µM"}, {"measurement": "EC50", "setting": "[16]; SU-DHL-4, SUDHL4 cell line, read-out: Haematopoietic & Lymphoid tumors, EC50 (μM) SUDHL4", "value": 0.14, "unit": "µM"}, {"measurement": "EC50", "setting": "[16]; HL-60 cell line, read-out: Haematopoietic & Lymphoid tumors, EC50 (μM) HL-60", "value": 0.769, "unit": "µM"}, {"measurement": "EC50", "setting": "[16]; JM1 cell line, read-out: Haematopoietic & Lymphoid tumors, EC50 (μM) JM1", "value": 0.075, "unit": "µM"}, {"measurement": "EC50", "setting": "[16]; JURKAT, Clone E6-1 cell line, read-out: Haematopoietic & Lymphoid tumors, EC50 (μM) JURKAT, Clone E6-1", "value": 0.466, "unit": "µM"}, {"measurement": "EC50", "setting": "[16]; JeKo-1 cell line, read-out: Haematopoietic & Lymphoid tumors, EC50 (μM) JeKo-1", "value": 0.048, "unit": "µM"}, {"measurement": "EC50", "setting": "[16]; KASUMI-1 cell line, read-out: Haematopoietic & Lymphoid tumors, EC50 (μM) KASUMI-1", "value": 0.25, "unit": "µM"}, {"measurement": "EC50", "setting": "[16]; Loucy cell line, read-out: Haematopoietic & Lymphoid tumors, EC50 (μM) Loucy", "value": 0.136, "unit": "µM"}, {"measurement": "EC50", "setting": "[16]; MOLT-4 cell line, read-out: Haematopoietic & Lymphoid tumors, EC50 (μM) MOLT-4", "value": 0.404, "unit": "µM"}, {"measurement": "EC50", "setting": "[16]; TF-1 cell line, read-out: Haematopoietic & Lymphoid tumors, EC50 (μM) TF-1", "value": 0.861, "unit": "µM"}, {"measurement": "EC50", "setting": "[16]; TOLEDO cell line, read-out: Haematopoietic & Lymphoid tumors, EC50 (μM) TOLEDO", "value": 0.077, "unit": "µM"}, {"measurement": "EC50", "setting": "[17]; A-427, A427 cell line, read-out: Lung cancer, EC50 (μM) A427", "value": 0.14, "unit": "µM"}, {"measurement": "EC50", "setting": "[17]; HCC78, HCC-78 cell line, read-out: Lung cancer, EC50 (μM) HCC-78", "value": 0.666, "unit": "µM"}, {"measurement": "EC50", "setting": "[17]; NCI-H460 cell line, read-out: Lung cancer, EC50 (μM) NCI-H460", "value": 2.64, "unit": "µM"}, {"measurement": "EC50", "setting": "[17]; NCI-H522 cell line, read-out: Lung cancer, EC50 (μM) NCI-H522", "value": 0.157, "unit": "µM"}, {"measurement": "EC50", "setting": "[18]; SNU-398, SNU398 cell line, read-out: Liver cancer, EC50 SNU398", "value": 57, "unit": "nM"}, {"measurement": "EC50", "setting": "[18]; HEPG2 cell line, read-out: Liver cancer, EC50 HEPG2", "value": 371, "unit": "nM"}, {"measurement": "EC50", "setting": "[18]; PLC/PRF/5 cell line, read-out: Liver cancer, EC50 PLC/PRF/5", "value": 1820, "unit": "nM"}]}
